Measured values: US12129491B2, “Methods and compositions relating to lung cell differentiation” (CHILDREN'S MEDICAL CENTER CORPORATION, priority 2016, dated 2024)

Tests used:
Assay type in all cases: cell-based, mouse
[1] = tested on: CK1750 and SC241 cell lines; assay: Flow cytometry screen of adenocarcinoma cell lines for stem cell surface marker Sca-1 with a small molecule library
From the text: The X axis crosses at the level of Sca-1 fluorescence measured in cells with the vehicle only control (DMSO). Bars up thus represent an increase in Sca-1 and Bars down represent a decrease. Each bar represents a different chemical treatment.
The CK1750 and SC241 cell lines derived from K-ras; p53fl/fl mouse adenocarcinoma tumors are highly enriched for Sca-1 and CD24. These cell lines were screened for factors that alter the expression of Sca1, CD24 or both markers, using the Stem Cell Core's Pilot Known Bioactives library, a small molecule library enriched in inhibitors of chromatin regulators (FIG. 1).

BASC 3D co-culture = BASC 3D co-culture resorted by FACS for Sca-1 expressing cells; settings: 3D cultures after 3 weeks growth, vs DMSO control (FIG. 2)
[2] = tested on: BASC (Bronchioalveolar Stem Cell) cultures; assay: 3D organoid culture of BASC: organoid morphology, lineage and staining
From the text: (§1) Quantification and statistical analysis of organoid morphologies from cultures grown with UNC0638 or DMSO control. *=P<0.05, two tailed independent samples T-test
Graphs depicts quantification of organoid lineage proportions in UNC0638 and DMSO treated cultures. On the top graph bronchiolar and tracheobronichiolar organoids are counted separately. On the bottom graph these organoids are counted together. *=P<0.05, two tailed independent samples T-test
FIG. 6 depicts graphs of the quantification of PAS and Alcian Blue Stained Organoids in DMSO and UNC0638 treated Organoids.
(§2) AT2 cells are only capable of producing alveolar morphological organoids (FIG. 3).
(§3) UNC0638 treatment reduces the proportion of Sca-1+ve alveolar organoids and increases the proportion of small, undifferentiated organoids. (FIG. 4) 250 nM UNC0638 reduces alveolar colony formation and increase ciliated organoid formation (FIG. 5).
Organoids with visible movement are observed in control cultures, but are more frequent in 250 nM UNC0638 treated cultures. […] Some organoids in UNC0638 cultures (and some rare organoids in DMSO cultures) can be seen to be visibly moving. They have currents in their lumen causing material within to move around. […] Currents are always counter clockwise, consistent with direction of cilia.
Ciliated organoids have large amounts of material that stain for PAS and Alcian Blue, like mucus produced by goblet cells in the lung upper airways. This material is likely what can be seen to revolve in the organoids with interior lumen currents. G9a/G1p inhibition increases the proportion and overall number of PAS/Alcian Blue Staining Organoids (FIG. 6). PAS stained cells resemble goblet cells that produce mucus in the upper airway. […] This is precisely the same as the lung upper airways which have a lower layer of p63+ Keratin 5+ stem cells known as basal cells.

[3] = tested on: AT2 (Alveolar Type 2) cultures; assay: 3D organoid culture of AT2 cells: organoid formation; settings: AT2 cultures (FIG. 3)
From the text: as §2

[4] = tested on: Sca-1−ve and Sca-1+ve sorted cells; assay: Quantification of organoid morphologies from Sca-1 sorted cells
Method: as §1, §3

COc1cc2c(NC3CCN(C(C)C)CC3)nc(C3CCCCC3)nc2cc1OCCCN1CCCC1 [UNC0638]
change in Sca-1 on the cell surface ([1]; among library chemicals, vs DMSO vehicle control (FIG. 1)): largest increase in Sca-1 | enrichment for high Sca-1 expressing, TPC-like cells ([1]; flow cytometry screen of adenocarcinoma cell lines): enriches for high Sca-1 expressing, TPC-like cells | Sca-1 expressing cells among stem cell-derived cells (BASC 3D co-culture): many more Sca-1 expressing cells | alveolar colony formation ([2]; 250 nM (FIG. 5)): reduces | ciliated organoid formation ([2]; 250 nM (FIG. 5)): increase | organoids with visible movement ([2]; 250 nM, vs control cultures): more frequent | organoids with alveolar morphology ([2]; BASC cultures (FIG. 3)): significantly fewer | organoids that resemble the large airways of the lung ([2]; lung stem cell cultures, beating multiciliated, goblet like and P63+ Kertatin 5+ cells): more organoids | H&E staining of Acetylated tubulin positive organoids ([2]; treated cultures): many of the cells are muticiliated | organoids that stained with Acetylated tubulin, a marker of Ciliated cells ([2]; treated cultures vs control): significantly more | alveolar organoid differentiation ([2]; vs DMSO control, *=P<0.05, two tailed independent samples T-test (FIG. 4, FIG. 5)): reduces | ciliated organoid differentiation ([2]; vs DMSO, *=P<0.05, two tailed independent samples T-test (FIG. 5)): increases | number of organoids [3]: significantly fewer organoids | proportion of alveolar organoids ([4]; Sca-1+ve (FIG. 4)): reduces | proportion of small, undifferentiated organoids ([4]; Sca-1+ve (FIG. 4)): increases | organoid formation ([4]; Sca-1−ve sorted cells (FIG. 4)): significantly reduces
